Measurements taken from PubChem BioAssay AID330 (DTP/NCI, 2004).
Values joined by “and” are separate entries in the source; they are usually repeats but may differ in a detail not shown here. Equal values may be shown once. Inconclusive results and toxic doses are left out.

Tested on: P388 leukemia ip, CD2F1 mice, survival T/C
Experiment: NCI In Vivo Anticancer Drug Screen. Data for tumor model P388 Leukemia (intraperitoneal) in CD2F1 (CDF1) mice
Details: endpoint: median survival time, higher = longer survival
How it was run: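 Mice carrying the transplanted tumor received test compound or vehicle. Survival was recorded in each group, and the value is the treated-group measurement divided by that of the vehicle-treated control group.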

[1] = dose: 50.0 mg/kg/injection, schedule: Q01DX009 (ip), vehicle: Klucel (hydroxypropylcellulose) (HPC)
[2] = dose: 100.0 mg/kg/injection, schedule: Q01DX009 (ip), vehicle: Klucel (hydroxypropylcellulose) (HPC)
[3] = dose: 200.0 mg/kg/injection, schedule: Q01DX009 (ip), vehicle: Klucel (hydroxypropylcellulose) (HPC)
[4] = dose: 100.0 mg/kg/injection, schedule: Q01DX009 (ip), vehicle: saline with Tween-80
[5] = dose: 200.0 mg/kg/injection, schedule: Q01DX009 (ip), vehicle: saline with Tween-80
[6] = dose: 400.0 mg/kg/injection, schedule: Q01DX009 (ip), vehicle: saline with Tween-80
[7] = dose: 50.0 mg/kg/injection, schedule: Q01DX005 (ip), vehicle: Klucel (hydroxypropylcellulose) (HPC)
[8] = dose: 100.0 mg/kg/injection, schedule: Q01DX005 (ip), vehicle: Klucel (hydroxypropylcellulose) (HPC)
[9] = dose: 200.0 mg/kg/injection, schedule: Q01DX005 (ip), vehicle: Klucel (hydroxypropylcellulose) (HPC)
[10] = dose: 50.0 mg/kg/injection, schedule: Q01DX005 (ip), vehicle: saline with Tween-80
[11] = dose: 100.0 mg/kg/injection, schedule: Q01DX005 (ip), vehicle: saline with Tween-80
[12] = dose: 200.0 mg/kg/injection, schedule: Q01DX005 (ip), vehicle: saline with Tween-80
[13] = dose: 6.25 mg/kg/injection, schedule: Q01DX009 (ip), vehicle: saline with Tween-80
[14] = dose: 12.5 mg/kg/injection, schedule: Q01DX009 (ip), vehicle: saline with Tween-80
[15] = dose: 100.0 mg/kg/injection, schedule: Q04DX003 (ip), vehicle: saline with Tween-80
[16] = dose: 200.0 mg/kg/injection, schedule: Q04DX003 (ip), vehicle: saline with Tween-80
[17] = dose: 400.0 mg/kg/injection, schedule: Q04DX003 (ip), vehicle: saline with Tween-80
[18] = dose: 25.0 mg/kg/injection, schedule: Q01DX009 (ip), vehicle: saline with Tween-80
[19] = dose: 50.0 mg/kg/injection, schedule: Q01DX009 (ip), vehicle: saline with Tween-80

O=S1(=O)c2ccccc2C(N2CCCCC2)C1CCCCC1C(N2CCCCC2)c2ccccc2S1(=O)=O (centres undefined)
T/C (dose: 100.0 mg/kg/injection, schedule: Q04DX002 (ip), vehicle: saline with Tween-80): 100 % of control
T/C (dose: 200.0 mg/kg/injection, schedule: Q04DX002 (ip), vehicle: saline with Tween-80): 98 % of control
T/C (dose: 400.0 mg/kg/injection, schedule: Q04DX002 (ip), vehicle: saline with Tween-80): 99 % of control

CC1=CC(=O)[C@@H](O)[C@]2(C)[C@H]3[C@@H](O)[C@H](O)[C@@]4(C)OC[C@@]35[C@@H](C[C@@H]12)OC(=O)C[C@]54O
T/C (dose: 1.0 mg/kg/injection, schedule: Q01DX009 (ip), vehicle: saline): 115 % of control
T/C (dose: 8.0 mg/kg/injection, schedule: Q01DX009 (ip), vehicle: saline): 153 % of control

CCn1c2ccccc2c2ccc(N=Cc3ccc([N+](=O)[O-])cc3)cc21
T/C [1]: 99 % of control
T/C [2]: 100 % of control
T/C [3]: 99 % of control

CCOC(=O)Cc1cccc(C)n1
T/C [4]: 100 % of control
T/C [5]: 109 % of control
T/C [6]: 104 % of control

Cn1c(COc2ccc(/C=N\N/C(N)=N/N=C/c3ccc(OCc4c[n+]5ccccc5n4C)cc3)cc2)c[n+]2ccccc12
T/C (dose: 12.5 mg/kg/injection, schedule: Q01DX005 (ip), vehicle: saline with Tween-80): 110 % of control
T/C (dose: 25.0 mg/kg/injection, schedule: Q01DX005 (ip), vehicle: saline with Tween-80): 112 % of control

O=C(Oc1ccccc1)N1CCOCC1
T/C (dose: 50.0 mg/kg/injection, schedule: Q01DX009 (ip), vehicle: other): 96 % of control
T/C (dose: 100.0 mg/kg/injection, schedule: Q01DX009 (ip), vehicle: other): 102 % of control
T/C (dose: 200.0 mg/kg/injection, schedule: Q01DX009 (ip), vehicle: other): 112 % of control

NC(N)=N/C(N)=N\c1nn[nH]n1
T/C (dose: 100.0 mg/kg/injection, schedule: Q01DX001 (ip), vehicle: saline): 95 % of control
T/C (dose: 200.0 mg/kg/injection, schedule: Q01DX001 (ip), vehicle: saline): 100 % of control
T/C (dose: 400.0 mg/kg/injection, schedule: Q01DX001 (ip), vehicle: saline): 100 % of control

COc1ccccc1/C=C/C(=O)c1ccccc(=O)c1O
T/C (dose: 25.0 mg/kg/injection, schedule: Q01DX005 (ip), vehicle: Klucel (hydroxypropylcellulose) (HPC)): 101 % of control
T/C [7]: 104 % of control
T/C [8]: 100 % of control
T/C [9]: 109 % of control

COc1cc(=O)n(-c2ccccc2)nc1C#N
T/C [10]: 93 % of control
T/C [11]: 92 % of control
T/C [12]: 90 % of control

O=S1(=O)CCC2CCCCC2C1 (centres undefined)
T/C [13]: 109 % of control
T/C [14]: 100 % of control

CC(/C=N\Nc1ccc(C(=O)O)cc1)=N/NC(=O)CC#N
T/C (dose: 50.0 mg/kg/injection, schedule: Q01DX009 (ip), vehicle: saline): 88 % of control
T/C (dose: 100.0 mg/kg/injection, schedule: Q01DX009 (ip), vehicle: saline): 86 % of control
T/C (dose: 200.0 mg/kg/injection, schedule: Q01DX009 (ip), vehicle: saline): 88 % of control

CCOC(=O)C(N)CSCSC (centres undefined)
T/C (dose: 50.0 mg/kg/injection, schedule: Q01DX009 (ip), vehicle: water): 88 % of control
T/C (dose: 100.0 mg/kg/injection, schedule: Q01DX009 (ip), vehicle: water): 97 % of control
T/C (dose: 200.0 mg/kg/injection, schedule: Q01DX009 (ip), vehicle: water): 86 % of control
T/C (dose: 400.0 mg/kg/injection, schedule: Q01DX009 (ip), vehicle: water): 94 % of control

COC(=O)CCC(C)(c1ccc(O)cc1)c1ccc(O)cc1
T/C [15]: 104 % of control
T/C [16]: 90 % of control
T/C [17]: 90 % of control

O=C1OC(c2ccccc2)=N/C1=C\c1ccccc1O
T/C [7]: 101 % of control
T/C [8]: 101 % of control
T/C [9]: 93 % of control

O=C1CC2(CCCC2)CC(=O)N1c1ccc(-c2ccc(N3C(=O)CC4(CCCC4)CC3=O)cc2)cc1
T/C [1]: 100 % of control
T/C [2]: 94 % of control

Nc1nc(=S)c2ncn(C3OC(COC(=O)c4ccc(Cl)cc4)C(OC(=O)c4ccc(Cl)cc4)C3OC(=O)c3ccc(Cl)cc3)c2[nH]1 (centres undefined)
T/C [18]: 122 % of control
T/C (dose: 25.0 mg/kg/injection, schedule: Q04DX003 (ip), vehicle: saline with Tween-80): 95 % of control
T/C (dose: 50.0 mg/kg/injection, schedule: Q04DX003 (ip), vehicle: saline with Tween-80): 100 % of control
T/C [15]: 104 % of control
T/C (dose: 132.0 mg/kg/injection, schedule: Q04DX003 (ip), vehicle: saline with Tween-80): 116 % of control
T/C [17]: 104 % of control

CCN(CC)CCOCCOC1(C)CCC(C(C)C)CC1 (centres undefined)
T/C (dose: 50.0 mg/kg/injection, schedule: Q01DX005 (ip), vehicle: suspension in saline): 108 % of control
T/C (dose: 100.0 mg/kg/injection, schedule: Q01DX005 (ip), vehicle: suspension in saline): 106 % of control

O=C1C2C3C=CC(O3)C2C(=O)N1/N=C/c1cccc2ccccc12 (centres undefined)
T/C [10]: 99 % of control
T/C [11]: 96 % of control
T/C [12]: 89 % of control

N#Cc1c(-c2ccccc2Cl)c(-c2ccccc2Cl)nn(CCO)c1=O
T/C (dose: 25.0 mg/kg/injection, schedule: Q04DX002 (ip), vehicle: distilled water + Tween-80): 99 % of control
T/C (dose: 50.0 mg/kg/injection, schedule: Q04DX002 (ip), vehicle: distilled water + Tween-80): 100 % of control
T/C (dose: 100.0 mg/kg/injection, schedule: Q04DX002 (ip), vehicle: distilled water + Tween-80): 91 % of control
T/C (dose: 200.0 mg/kg/injection, schedule: Q04DX002 (ip), vehicle: distilled water + Tween-80): 101 % of control

COc1ccc(-c2c(-c3ccccc3)c(=O)oc3cc(OC)ccc23)cc1
T/C (dose: 60.0 mg/kg/injection, schedule: Q01DX005 (ip), vehicle: saline with Tween-80): 91 % of control
T/C (dose: 120.0 mg/kg/injection, schedule: Q01DX005 (ip), vehicle: saline with Tween-80): 87 % of control and 88 % of control

CC(C)(C)C(=O)/C=C/c1ccc(Cl)c(Cl)c1
T/C [1]: 104 % of control
T/C [2]: 107 % of control
T/C [3]: 99 % of control

O=C(CCl)NCc1ccc([N+](=O)[O-])cc1
T/C [18]: 108 % of control
T/C [19]: 112 % of control
T/C [4]: 108 % of control
T/C [5]: 103 % of control

CCOC(=O)CC(C)C#N (centres undefined)
T/C [19]: 99 % of control
T/C [4]: 99 % of control
T/C [5]: 101 % of control

CC(CN=C(CC(=O)c1ccc(Br)cc1)c1ccccc1)N=C(CC(=O)c1ccc(Br)cc1)c1ccccc1 (centres undefined)
T/C [15]: 90 % of control
T/C [16]: 87 % of control
T/C [17]: 87 % of control

O=C(COc1cccc(Cl)c1)NCc1ccc([N+](=O)[O-])cc1
T/C (dose: 100.0 mg/kg/injection, schedule: Q01DX001 (ip), vehicle: saline with Tween-80): 100 % of control
T/C (dose: 200.0 mg/kg/injection, schedule: Q01DX001 (ip), vehicle: saline with Tween-80): 90 % of control
T/C (dose: 400.0 mg/kg/injection, schedule: Q01DX001 (ip), vehicle: saline with Tween-80): 100 % of control

COc1ccc(N=NS(=O)(=O)O)cn1
T/C (dose: 3.12 mg/kg/injection, schedule: Q01DX009 (ip), vehicle: saline with Tween-80): 93 % of control
T/C [13]: 101 % of control
T/C [14]: 108 % of control
T/C [18]: 97 % of control
T/C [19]: 99 % of control and 97 % of control
T/C [4]: 94 % of control
T/C [5]: 106 % of control
T/C [6]: 101 % of control

O=C(CN(OC(=O)c1ccccc1)C(=O)c1ccccc1)OCc1ccccc1
T/C (dose: 12.5 mg/kg/injection, schedule: Q01DX009 (ip), vehicle: distilled water + Tween-80): 92 % of control
T/C (dose: 25.0 mg/kg/injection, schedule: Q01DX009 (ip), vehicle: distilled water + Tween-80): 99 % of control
T/C (dose: 50.0 mg/kg/injection, schedule: Q01DX009 (ip), vehicle: distilled water + Tween-80): 99 % of control
T/C (dose: 100.0 mg/kg/injection, schedule: Q01DX009 (ip), vehicle: distilled water + Tween-80): 100 % of control
T/C (dose: 200.0 mg/kg/injection, schedule: Q01DX009 (ip), vehicle: distilled water + Tween-80): 101 % of control
